# Results published in patent US8362249B2, “CXCR3 receptor antagonists” (Boehringer Ingelheim International GmbH, priority 2009, dated 2013).
# Molecular target: CXCR3 (Macaca fascicularis, UniProt A0A2K5UV19)
# Experiment: functional cellular assay measuring calcium flux in CXCR3 transfected cells (block of CXCR3/IP-10 interaction)
# Assay type: cell-based
# Conditions: IP-10 induced intracellular calcium flux; Cyno-CHO cells stably expressing recombinant CXCR3 and G-alpha-16
# Procedure: Compounds are assessed for the ability to block the interaction of CXCR3 and IP-10 in a functional cellular assay measuring calcium flux in CXCR3 transfected cells.
# Cyno-CHO cells, stably expressing recombinant CXCR3 and G-alpha-16 are grown in F12 medium (Mediatech #45000-360) supplemented with 10% (V/V) FBS (Mediatech #35-01500), 1% Geneticin (Invitrogen #10131-027) and 0.2% Zeocin (Invitrogen #R250-05). The cells are spun down and re-suspended in growth media to a concentration of 4.8 E5 cells/mL. 25 microL of cell suspension is added to each well of a BD-384-well TC treated plate, providing 12,000 cells/well. The plate is incubated at 37° C./5% CO2 overnight. On the day of the assay, the plates are removed, the media is flicked out and 25 microL of Ca-4 dye in assay buffer (HBSS, 10 mM HEPES ph 7.4), containing 2 mM probenacid is added to each well. The cell assay plates are then incubated at 37° C./5% CO2 for one hour.
# Test compounds are dissolved in DMSO and diluted to 1.045 mM in DMSO. Just prior to assay, 2.75 microL of appropriately diluted test compound are added to each well of a 384 well plate containing 45 microL of HBSS buffer. After mixing, 5 microL of diluted compound are added to each well of the cell assay plate for a final assay concentration of 10 microM. The plate is incubated at room temperature for 15 min. 10 microL of IP-10 stock solution in HBSS (4× EC80 concentration) are added to each well of the cell assay plate except those cells reserved as blank wells containing buffer only. Intracellular calcium flux is recorded on the HAMAMTSU FDSS6000, using excitation at 480 nm and emission at 540 nm. Data are analyzed using Activity Base software.
# In general, the preferred potency range (IC50) of compounds in the above assay is between 1 nM to 3 μM, and the most preferred potency range is 1 nM to 20 nM.
# CXCR3, sequence (A0A2K5UV19 entry or part of it): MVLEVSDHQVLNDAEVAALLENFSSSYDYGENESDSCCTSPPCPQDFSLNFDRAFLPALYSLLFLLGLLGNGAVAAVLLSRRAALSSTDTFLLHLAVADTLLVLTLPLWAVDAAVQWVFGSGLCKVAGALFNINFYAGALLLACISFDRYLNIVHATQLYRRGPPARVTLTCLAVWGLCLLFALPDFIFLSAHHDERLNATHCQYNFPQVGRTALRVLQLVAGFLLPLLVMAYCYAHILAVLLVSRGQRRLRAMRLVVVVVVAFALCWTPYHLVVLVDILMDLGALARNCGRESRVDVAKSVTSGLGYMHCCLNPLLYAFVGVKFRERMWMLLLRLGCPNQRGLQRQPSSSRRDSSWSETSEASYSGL
row,SMILES,IC50
1,"Cc1cc(C)n(CC(=O)N2CCN(c3ccccc3C(=O)Nc3cnc4c(cnn4C(C)C)c3)CC2)n1 [2-{4-[2-(3,5-Dimethyl-pyrazol-1-yl)-acetyl]-piperazin-1-yl}-N-(1-isopropyl-1H-pyrazolo[3,4-b]pyridin-5-yl)-benzamide]",11.5 nM
2,"Cc1cc(C)n(CC(=O)N2CCN(c3ccccc3C(=O)Nc3ccccc3F)CC2)n1 [2-{4-[2-(3,5-Dimethyl-pyrazol-1-yl)-acetyl]-piperazin-1-yl}-N-(2-fluoro-phenyl)-benzamide]",5.5 nM
3,"COc1cc(NC(=O)c2ccccc2N2CCN(C(=O)Cn3nc(C)cc3C)CC2)ccn1 [2-{4-[2-(3,5-Dimethyl-pyrazol-1-yl)-acetyl]-piperazin-1-yl}-N-(2-methoxy-pyridin-4-yl)-benzamide]",8.5 nM
4,"Cc1cc(C)n(CC(=O)N2CCN(c3ccccc3C(=O)Nc3ccc4oc(C)nc4c3)CC2)n1 [2-{4-[2-(3,5-Dimethyl-pyrazol-1-yl)-acetyl]-piperazin-1-yl}-N-(2-methyl-benzooxazol-5-yl)-benzamide]",17.5 nM
5,"Cc1cc(C)n(CC(=O)N2CCN(c3ccccc3C(=O)Nc3ccc4nc(C)sc4c3)CC2)n1 [2-{4-[2-(3,5-Dimethyl-pyrazol-1-yl)-acetyl]-piperazin-1-yl}-N-(2-methyl-benzothiazol-6-yl)-benzamide]",13 nM
6,"Cc1cc(NC(=O)c2ccccc2N2CCN(C(=O)Cn3nc(C)cc3C)CC2)ccn1 [2-{4-[2-(3,5-Dimethyl-pyrazol-1-yl)-acetyl]-piperazin-1-yl}-N-(2-methyl-pyridin-4-yl)-benzamide]",12.5 nM
7,"Cc1cc(C)n(CC(=O)N2CCN(c3ccccc3C(=O)Nc3cnc(-c4ccccc4)nc3)CC2)n1 [2-{4-[2-(3,5-Dimethyl-pyrazol-1-yl)-acetyl]-piperazin-1-yl}-N-(2-phenyl-pyrimidin-5-yl)-benzamide]",10.5 nM
8,"Cc1cc(C)n(CC(=O)N2CCN(c3ccccc3C(=O)Nc3ccnc(C(F)(F)F)c3)CC2)n1 [2-{4-[2-(3,5-Dimethyl-pyrazol-1-yl)-acetyl]-piperazin-1-yl}-N-(2-trifluoromethyl-pyridin-4-yl)-benzamide]",12 nM
9,"Cc1cc(C)n(CC(=O)N2CCN(c3ccccc3C(=O)Nc3cnc(C(F)(F)F)nc3)CC2)n1 [2-{4-[2-(3,5-Dimethyl-pyrazol-1-yl)-acetyl]-piperazin-1-yl}-N-(2-trifluoromethyl-pyrimidin-5-yl)-benzamide]",5 nM
10,"Cc1cc(C)n(CC(=O)N2CCN(c3ccccc3C(=O)Nc3cccc(S(=O)(=O)N(C)C)c3)CC2)n1 [2-{4-[2-(3,5-Dimethyl-pyrazol-1-yl)-acetyl]-piperazin-1-yl}-N-(3-dimethylsulfamoyl-phenyl)-benzamide]",17 nM
11,"Cc1cc(C)n(CC(=O)N2CCN(c3ccccc3C(=O)Nc3ccncc3F)CC2)n1 [2-{4-[2-(3,5-Dimethyl-pyrazol-1-yl)-acetyl]-piperazin-1-yl}-N-(3-fluoro-pyridin-4-yl)-benzamide]",19.5 nM
12,"Cc1cc(C)n(CC(=O)N2CCN(c3ccccc3C(=O)Nc3cccc(S(C)(=O)=O)c3)CC2)n1 [2-{4-[2-(3,5-Dimethyl-pyrazol-1-yl)-acetyl]-piperazin-1-yl}-N-(3-methanesulfonyl-phenyl)-benzamide]",19 nM
13,"COc1cccc(NC(=O)c2ccccc2N2CCN(C(=O)Cn3nc(C)cc3C)CC2)c1 [2-{4-[2-(3,5-Dimethyl-pyrazol-1-yl)-acetyl]-piperazin-1-yl}-N-(3-methoxy-phenyl)-benzamide]",4.3 nM
14,"Cc1cc(C)n(CC(=O)N2CCN(c3ccccc3C(=O)Nc3cc(-c4ccccc4)no3)CC2)n1 [2-{4-[2-(3,5-Dimethyl-pyrazol-1-yl)-acetyl]-piperazin-1-yl}-N-(3-phenyl-isoxazol-5-yl)-benzamide]",8.8 nM
15,"Cc1cc(C)n(CC(=O)N2CCN(c3ccccc3C(=O)Nc3cccc(OC(F)(F)F)c3)CC2)n1 [2-{4-[2-(3,5-Dimethyl-pyrazol-1-yl)-acetyl]-piperazin-1-yl}-N-(3-trifluoromethoxy-phenyl)-benzamide]",3.1 nM
16,"Cc1cc(C)n(CC(=O)N2CCN(c3ccccc3C(=O)Nc3cc(C(F)(F)F)no3)CC2)n1 [2-{4-[2-(3,5-Dimethyl-pyrazol-1-yl)-acetyl]-piperazin-1-yl}-N-(3-trifluoromethyl-isoxazol-5-yl)-benzamide]",5.1 nM
17,"Cc1cc(C)n(CC(=O)N2CCN(c3ccccc3C(=O)Nc3cccc(C(F)(F)F)c3)CC2)n1 [2-{4-[2-(3,5-Dimethyl-pyrazol-1-yl)-acetyl]-piperazin-1-yl}-N-(3-trifluoromethyl-phenyl)-benzamide]",8 nM

row,SMILES,IC50
1,"Cc1cc(C)n(CC(=O)N2CCN(c3ccccc3C(=O)Nc3nc4c(s3)CCCC4)CC2)n1 [2-{4-[2-(3,5-Dimethyl-pyrazol-1-yl)-acetyl]-piperazin-1-yl}-N-(4,5,6,7-tetrahydro-benzothiazol-2-yl)-benzamide]",12 nM
2,"Cc1cc(C)n(CC(=O)N2CCN(c3ccccc3C(=O)Nc3ccc(S(C)(=O)=O)cc3)CC2)n1 [2-{4-[2-(3,5-Dimethyl-pyrazol-1-yl)-acetyl]-piperazin-1-yl}-N-(4-methanesulfonyl-phenyl)-benzamide]",8.8 nM
3,"Cc1csc(NC(=O)c2ccccc2N2CCN(C(=O)Cn3nc(C)cc3C)CC2)n1 [2-{4-[2-(3,5-Dimethyl-pyrazol-1-yl)-acetyl]-piperazin-1-yl}-N-(4-methyl-thiazol-2-yl)-benzamide]",12 nM
4,"Cc1cc(C)n(CC(=O)N2CCN(c3ccccc3C(=O)Nc3nc(-c4ccccn4)cs3)CC2)n1 [2-{4-[2-(3,5-Dimethyl-pyrazol-1-yl)-acetyl]-piperazin-1-yl}-N-(4-pyridin-2-yl-thiazol-2-yl)-benzamide]",11.5 nM
5,"Cc1cc(C)n(CC(=O)N2CCN(c3ccccc3C(=O)Nc3nc(-c4cccnc4)cs3)CC2)n1 [2-{4-[2-(3,5-Dimethyl-pyrazol-1-yl)-acetyl]-piperazin-1-yl}-N-(4-pyridin-3-yl-thiazol-2-yl)-benzamide]",20 nM
6,"Cc1cc(C)n(CC(=O)N2CCN(c3ccccc3C(=O)Nc3nc(-c4ccncc4)cs3)CC2)n1 [2-{4-[2-(3,5-Dimethyl-pyrazol-1-yl)-acetyl]-piperazin-1-yl}-N-(4-pyridin-4-yl-thiazol-2-yl)-benzamide]",13.5 nM
7,"Cc1cc(C)n(CC(=O)N2CCN(c3ccccc3C(=O)Nc3ccc(C(F)(F)F)cc3)CC2)n1 [2-{4-[2-(3,5-Dimethyl-pyrazol-1-yl)-acetyl]-piperazin-1-yl}-N-(4-trifluoromethyl-phenyl)-benzamide]",4.2 nM
8,"Cc1cc(C)n(CC(=O)N2CCN(c3ccccc3C(=O)Nc3nc(C(F)(F)F)cs3)CC2)n1 [2-{4-[2-(3,5-Dimethyl-pyrazol-1-yl)-acetyl]-piperazin-1-yl}-N-(4-trifluoromethyl-thiazol-2-yl)-benzamide]",18 nM
9,"Cc1cc(C)n(CC(=O)N2CCN(c3ccccc3C(=O)Nc3cnc(C)c(F)c3)CC2)n1 [2-{4-[2-(3,5-Dimethyl-pyrazol-1-yl)-acetyl]-piperazin-1-yl}-N-(5-fluoro-6-methyl-pyridin-3-yl)-benzamide]",14 nM
10,"Cc1cc(C)n(CC(=O)N2CCN(c3ccccc3C(=O)Nc3cncc(F)c3)CC2)n1 [2-{4-[2-(3,5-Dimethyl-pyrazol-1-yl)-acetyl]-piperazin-1-yl}-N-(5-fluoro-pyridin-3-yl)-benzamide]",10.8 nM
11,"Cc1cc(C)n(CC(=O)N2CCN(c3ccccc3C(=O)Nc3cncc(O)c3)CC2)n1 [2-{4-[2-(3,5-Dimethyl-pyrazol-1-yl)-acetyl]-piperazin-1-yl}-N-(5-hydroxy-pyridin-3-yl)-benzamide]",12.5 nM
12,"Cc1cc(C)n(CC(=O)N2CCN(c3ccccc3C(=O)Nc3nc4c(s3)CN(C)CC4)CC2)n1 [2-{4-[2-(3,5-Dimethyl-pyrazol-1-yl)-acetyl]-piperazin-1-yl}-N-(5-methyl-4,5,6,7-tetrahydro-thiazolo[5,4-c]pyridin-2-yl)-benzamide]",9.7 nM
13,"Cc1cncc(NC(=O)c2ccccc2N2CCN(C(=O)Cn3nc(C)cc3C)CC2)c1 [2-{4-[2-(3,5-Dimethyl-pyrazol-1-yl)-acetyl]-piperazin-1-yl}-N-(5-methyl-pyridin-3-yl)-benzamide]",5.1 nM
14,"Cc1cc(C)n(CC(=O)N2CCN(c3ccccc3C(=O)Nc3ncc(C)s3)CC2)n1 [2-{4-[2-(3,5-Dimethyl-pyrazol-1-yl)-acetyl]-piperazin-1-yl}-N-(5-methyl-thiazol-2-yl)-benzamide]",7.3 nM
15,"Cc1cc(C)n(CC(=O)N2CCN(c3ccccc3C(=O)Nc3nc4ccc(S(C)(=O)=O)cc4s3)CC2)n1 [2-{4-[2-(3,5-Dimethyl-pyrazol-1-yl)-acetyl]-piperazin-1-yl}-N-(6-methanesulfonyl-benzothiazol-2-yl)-benzamide]",6.6 nM
16,"COc1ccc2nc(NC(=O)c3ccccc3N3CCN(C(=O)Cn4nc(C)cc4C)CC3)sc2c1 [2-{4-[2-(3,5-Dimethyl-pyrazol-1-yl)-acetyl]-piperazin-1-yl}-N-(6-methoxy-benzothiazol-2-yl)-benzamide]",9.8 nM
